Reference: US12187709B2 (Genentech, Inc., priority 2021, dated 2025)

Experiments:
[1] = biological target: c-Cbl (Homo sapiens (Human), UniProt P22681); assay: C-Cbl LCK Ub TR-FRET assay (C-cbl Lck HTRF); format: biochemical
Procedure, shortened: (§1)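 Signal is read once the detection mix has stood 20 min at ambient temperature. Curves are anchored by DMSO as maximum and by omission of LCK as minimum.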

[2] = biological target: c-Cbl (residues 47-435) (Homo sapiens (Human), UniProt P22681); assay: c-Cbl SPR assay; format: binding; conditions: 20° C.
Procedure, shortened: (§2)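 SPR, multi-cycle, 6-pt 2-fold series, blanks flanking for double referencing; capture 1300-1500 RU; contact 60 s at 40 μl/min; dissoc. 120-1200 s (~4-5 half-lives). 1:1 fit. Chaser variant: single cycle, 5 conc., top 500 nM, 120 s contact, 450 s dissociation.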

[3] = biological target: Cbl-b (Homo sapiens (Human), UniProt Q13191); assay: Cbl-b LCK Ub TR-FRET assay (Cbl-b Lck HTRF); format: biochemical; conditions: for IC50: Cbl-b LCK Ub TR-FRET; for fold-selectivity (Cbl-b over C-cbl) / (fold-selectivity) Cbl-b and C-Cbl Selectivity: ratio C-cbl Lck HTRF IC50 / Cbl-b Lck HTRF IC50
Procedure, shortened: as §1

[4] = biological target: Human Cbl-b (residues 40-426) (Homo sapiens (Human), UniProt Q13191); assay: Cbl-b SPR assay; format: binding; conditions: for Fold of selectivity: C-cbl SPR Kd vs Cbl-b SPR Kd; for Kd: SPR, 20° C.
Procedure, shortened: as §2

Chain of Human Cbl-b (residues 40-426) (Q13191 40-426): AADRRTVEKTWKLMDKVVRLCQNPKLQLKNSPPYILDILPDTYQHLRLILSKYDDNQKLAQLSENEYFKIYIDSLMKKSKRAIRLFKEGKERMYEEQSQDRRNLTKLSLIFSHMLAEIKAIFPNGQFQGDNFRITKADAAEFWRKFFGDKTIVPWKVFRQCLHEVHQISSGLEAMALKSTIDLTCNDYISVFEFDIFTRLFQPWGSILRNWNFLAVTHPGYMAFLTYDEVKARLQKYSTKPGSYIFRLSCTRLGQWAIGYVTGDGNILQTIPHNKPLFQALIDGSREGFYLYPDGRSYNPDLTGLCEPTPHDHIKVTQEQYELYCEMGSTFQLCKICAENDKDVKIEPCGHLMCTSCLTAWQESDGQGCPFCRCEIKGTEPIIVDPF
Chain of Cbl-b (Q13191 40-426): as above
Chain of c-Cbl (P22681 47-435): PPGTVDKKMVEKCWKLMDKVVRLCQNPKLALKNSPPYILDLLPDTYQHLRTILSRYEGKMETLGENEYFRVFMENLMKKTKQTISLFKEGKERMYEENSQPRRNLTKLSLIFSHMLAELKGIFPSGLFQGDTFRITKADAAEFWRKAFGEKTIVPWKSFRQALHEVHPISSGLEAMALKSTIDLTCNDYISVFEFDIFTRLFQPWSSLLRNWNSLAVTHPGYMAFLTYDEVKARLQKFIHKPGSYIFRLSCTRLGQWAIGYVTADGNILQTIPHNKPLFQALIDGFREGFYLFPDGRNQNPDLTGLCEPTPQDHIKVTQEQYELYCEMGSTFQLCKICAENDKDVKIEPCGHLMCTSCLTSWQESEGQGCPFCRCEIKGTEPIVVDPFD
Chain of c-Cbl (residues 47-435) (P22681 47-435): as above

Compound | IC50 [1] [nM] | Kd [2] [nM] | IC50 [3] [nM] | fold-selectivity (Cbl-b over C-cbl) [3] [x] | Fold of selectivity [4] [×] | Kd [4] [nM] | IC50 ([3]; Example 121) [nM] | (fold-selectivity) Cbl-b and C-Cbl Selectivity [3] [x]
Cn1cnnc1C1(c2cccc(N3Cc4c(cc(CNC5(C)CCC5)cc4C(F)(F)F)C3=O)c2)C[S+]([O-])C1 (stereo not drawn) [Compound 331, 2-(3-((1r,3r)-3-(4-methyl-4H-1,2,4-triazol-3-yl)-1-oxidothietan-3-yl)phenyl)-6-(((1-methylcyclobutyl)amino)methyl)-4-(trifluoromethyl)isoindolin-1-one] | 110 | 120 | 29 | 3.8 | 8 | 15 | – | –
Cn1cnnc1[C@]1(c2cccc(N3Cc4c(cc(CNC5(C)CCC5)cc4C(F)(F)F)C3=O)c2)C[C@@H](OC(F)F)C1 [Compound 334, 2-(3-((1r,3r)-3-(difluoromethoxy)-1-(4-methyl-4H-1,2,4-triazol-3-yl)cyclobutyl)phenyl)-6-(((1-methylcyclobutyl)amino)methyl)-4-(trifluoromethyl)isoindolin-1-one] | 14 | 22 | 5.9 | 2.5 | 26 | 0.85 | – | –
Cn1cnnc1[C@]1(c2cccc(N3Cc4c(cc(CNC5(C)CCC5)cc4C(F)(F)F)C3=O)c2)C[C@H](OC(F)F)C1 [Compound 335, 2-(3-((1s,3s)-3-(difluoromethoxy)-1-(4-methyl-4H-1,2,4-triazol-3-yl)cyclobutyl)phenyl)-6-(((1-methylcyclobutyl)amino)methyl)-4-(trifluoromethyl)isoindolin-1-one] | 26 | 45 | 8.8 | 3.0 | 17 | 2.6 | – | –
CCNc1cc([C@]2(c3nncn3C)C[C@H](C)C2)cc(N2Cc3c(cc(CNC4(C)CCC4)cc3C(F)(F)F)C2=O)c1F [Compound 336, 2-(3-(ethylamino)-2-fluoro-5-((1r,3r)-3-methyl-1-(4-methyl-4H-1,2,4-triazol-3-yl)cyclobutyl)phenyl)-6-(((1-methylcyclobutyl)amino)methyl)-4-(trifluoromethyl)isoindolin-1-one] | 9.1 | 13 | 7.4 | 1.2 | 4.1 | 3.2 | – | –
CCNc1cc([C@]2(c3nncn3C)C[C@@H](C)C2)cc(N2Cc3c(cc(CNC4(C)CCC4)cc3C(F)(F)F)C2=O)c1F [Compound 337, 2-(3-(ethylamino)-2-fluoro-5-((1s,3s)-3-methyl-1-(4-methyl-4H-1,2,4-triazol-3-yl)cyclobutyl)phenyl)-6-(((1-methylcyclobutyl)amino)methyl)-4-(trifluoromethyl)isoindolin-1-one] | 7.8 | 6.5 | 6.2 | 1.2 | 3.4 | 1.9 | – | –
Cn1cnnc1[C@]1(c2cccc(N3Cc4c(cc(CNC5(C)CCC5)cc4C(F)(F)F)C3=O)c2)C[C@]2(CCCO2)C1 [Compound 340, 2-(3-((2s, 4r)-2-(4-methyl-4H-1,2,4-triazol-3-yl)-5-oxaspiro[3.4]octan-2-yl)phenyl)-6-(((1-methylcyclobutyl)amino)methyl)-4-(trifluoromethyl) isoindolin-1-one] | 1100 | 1900 | 110 | 10 | 24 | 82 | – | –
Cn1cnnc1[C@]1(c2cccc(N3Cc4c(cc(CNC5(C)CCC5)cc4C(F)(F)F)C3=O)c2)C[C@@]2(CCCO2)C1 [Compound 341, 2-(3-((2r, 4s)-2-(4-methyl-4H-1,2,4-triazol-3-yl)-5-oxaspiro [3.4]octan-2-yl)phenyl)-6-(((1-methylcyclobutyl)amino)methyl)-4-(trifluoromethyl) isoindolin-1-one] | 100 | 120 | 13 | 8.4 | 11 | 11 | – | –
CC(=O)[C@H]1C[C@@](c2cccc(N3Cc4c(cc(CNC5(C)CCC5)cc4C(F)(F)F)C3=O)c2)(c2nncn2C)C1 [Compound 346, 2-(3-((1s,3s)-3-acetyl-1-(4-methyl-4H-1,2,4-triazol-3-yl)cyclobutyl)phenyl)-6-(((1-methylcyclobutyl)amino)methyl)-4-(trifluoromethyl)isoindolin-1-one] | 190 | 200 | 40 | 4.6 | 5.4 | 35 | – | –
CC(=O)[C@H]1C[C@](c2cccc(N3Cc4c(cc(CNC5(C)CCC5)cc4C(F)(F)F)C3=O)c2)(c2nncn2C)C1 [Compound 347, 2-(3-((1r,3r)-3-acetyl-1-(4-methyl-4H-1,2,4-triazol-3-yl)cyclobutyl)phenyl)-6-(((1-methylcyclobutyl)amino)methyl)-4-(trifluoromethyl)isoindolin-1-one] | 30 | 33 | 10 | 3 | 11 | 3 | – | –
Cn1cnnc1[C@]1(c2cccc(N3Cc4c(cc(CNC5(C)CCC5)cc4C(F)(F)F)C3=O)c2)C[C@H](OCF)C1 [Compound 370, 2-(3-((1s,3s)-3-(fluoromethoxy)-1-(4-methyl-4H-1,2,4-triazol-3-yl)cyclobutyl)phenyl)-6-(((1-methylcyclobutyl)amino)methyl)-4-(trifluoromethyl)isoindolin-1-one] | 42 | 39 | 13 | 3.2 | 9 | 4.2 | – | –
Cn1cnnc1[C@]1(c2cccc(N3Cc4c(cc(CNC5(C)CCC5)cc4C(F)(F)F)C3=O)c2)C[C@@H](OCF)C1 [Compound 371, 2-(3-((1r,3r)-3-(fluoromethoxy)-1-(4-methyl-4H-1,2,4-triazol-3-yl)cyclobutyl)phenyl)-6-(((1-methylcyclobutyl)amino)methyl)-4-(trifluoromethyl)isoindolin-1-one] | 42 | 380 | 8.3 | 5.0 | 7.8 | 48 | – | –
CC[C@H]1C[C@@](c2cccc(N3Cc4c(Cl)cc(CNC5(C)CCC5)cc4C3=O)c2)(c2nncn2C)C1 [Compound 374, 4-chloro-2-(3-((1r,3s)-3-ethyl-1-(4-methyl-4H-1,2,4-triazol-3-yl)cyclobutyl)phenyl)-6-(((1-methylcyclobutyl)amino)methyl)isoindolin-1-one] | 14 | 10 | 6.6 | 2.0 | 11 | 0.95 | – | –
CC[C@H]1C[C@](c2cccc(N3Cc4c(Cl)cc(CNC5(C)CCC5)cc4C3=O)c2)(c2nncn2C)C1 [Compound 375, 4-chloro-2-(3-((1s,3r)-3-ethyl-1-(4-methyl-4H-1,2,4-triazol-3-yl)cyclobutyl)phenyl)-6-(((1-methylcyclobutyl)amino)methyl)isoindolin-1-one] | 16 | 11 | 6.4 | 2.5 | 11 | 1 | – | –
CCCN1CC(c2cc3c(c(C(F)(F)F)c2)CN(c2cccc([C@H](c4nncn4C)C4COC4)c2)C3=O)C1 [Compound 386, (R)-2-(3-((4-methyl-4H-1,2,4-triazol-3-yl)(oxetan-3-yl)methyl)phenyl)-6-(1-propylazetidin-3-yl)-4-(trifluoromethyl)isoindolin-1-one] | 290 | 320 | 110 | 2.6 | 2.4 | 110 | – | –
Cn1cnnc1[C@]1(c2cccc(N3Cc4c(cc(CNC5(C)CCC5)cc4C(F)(F)F)C3=O)c2)C[C@@](O)(C(F)F)C1 [Compound 405, 2-(3-((1s,3s)-3-(difluoromethyl)-3-hydroxy-1-(4-methyl-4H-1,2,4-triazol-3-yl)cyclobutyl)phenyl)-6-(((1-methylcyclobutyl)amino)methyl)-4-(trifluoromethyl)isoindolin-1-one] | 77 | 75 | – | – | 7.7 | 9.4 | 15 | 5.3
CO[C@H]1C[C@](c2cccc(N3Cc4c(cc(CNC5CCC5)cc4C(F)(F)F)C3=O)c2)(c2nncn2C)C1 [Compound 414, 6-((cyclobutylamino)methyl)-2-(3-((1r,3r)-3-methoxy-1-(4-methyl-4H-1,2,4-triazol-3-yl)cyclobutyl)phenyl)-4-(trifluoromethyl)isoindolin-1-one] | 50 | 77 | – | – | 7.7 | 10 | 9.4 | 5.2
CO[C@H]1C[C@](c2cccc(N3Cc4c(cc(CNCC5CC5)cc4C(F)(F)F)C3=O)c2)(c2nncn2C)C1 [Compound 415, 6-(((cyclopropylmethyl)amino)methyl)-2-(3-((1r,3r)-3-methoxy-1-(4-methyl-4H-1,2,4-triazol-3-yl)cyclobutyl)phenyl)-4-(trifluoromethyl)isoindolin-1-one] | 48 | 63 | – | – | 13 | 5 | 11 | 4.2
